Consider 13 molecules from article PMC8279492, “Quinolinonyl Non-Diketo Acid Derivatives as Inhibitors of HIV-1 Ribonuclease H and Polymerase Functions of Reverse Transcriptase” (Journal of Medicinal Chemistry, 2021).

Like-named read-outs stand apart in the source and are kept apart here.

Series [1] in a line: Compounds' toxicity, CellTiter 96 AQueous One Solution Cell Proliferation Assay. The series is classed as cell-based. As to conditions: human, HeLa-CD4-LTR-β-gal cells. The procedure: (§1) HIV-1 replication was monitored using HeLa-CD4-LTR-β-gal reporter cells as previously described.[69] Briefly, β-galactosidase activity was monitored 24 h post infection using a replication-competent HIV produced in-house (H9-laï coculture) and a serial dilution of molecules or an equivalent volume of DMSO. In parallel, compounds’ toxicity was determined at 24 h in the same cell line using CellTiter 96 AQueous One Solution Cell Proliferation Assay (Promega, France).

A further series concerns the target HIV-1 IN (Human immunodeficiency virus type 1 group M subtype B, UniProt P12497). As to the kind of experiment: biochemical. The procedure:
His-tagged NL4-3 IN was expressed from a pET15b plasmid in the E. coli BL21 pLys strain. Recombinant protein was purified as previously described[67] following a batch preparation on Ni-NTA beads (Qiagen, Paris, France).
Both oligonucleotides were purchased from Integrated DNA Technologies, Inc. (Coralville, IA), and the gel was purified in-house. ST reactions were performed by adding molecules or an equivalent volume of 100% dimethyl sulfoxide (DMSO, used as the drug solvent) to a mixture of 20 nM duplex DNA substrate and 400 nM IN in 50 mM MOPS pH 7.2, 7.5 mM MgCl2, and 14 mM 2-mercaptoethanol. Mixtures were incubated at 37 °C for 2 h, and the reaction was quenched by addition of an equal volume of loading buffer [formamide containing 1% sodium dodecyl sulfate (SDS), 0.25% bromophenol blue, and xylene cyanol]. […] Dried gels were visualized using a FLA5000 (Fuji Photo Film, Tokyo, Japan). Densitometric analyses were performed using ImageQuant 5.1 software from GE Healthcare.

In series [2] the target is T1, HIV-1 RT-associated RNase H activity (Human immunodeficiency virus type 1 group M subtype B, UniProt P03366).
T1 construct: His-tagged p66/p51 HIV-1 RT group M subtype B; His; made in house; host or cells: Escherichia coli M15
The experiment in a line: biochemical. The series is classed as biochemical. As to the method:
(11) and β-thujaplicinol (BTP) used as positive controls.
(§2) His-tagged p66/p51 HIV-1 RT group M subtype B coded in a p6HRT-prot plasmid was expressed in the Escherichia coli strain M15.[65] Heterodimeric RTs were expressed essentially and purified as described.[66]
The HIV-1 RT-associated RNase H activity was measured as described.[68] Briefly, the reaction was carried out in a black 96-well plate in a total volume of 100 μL. […] Experiments were performed in duplicate and replicated at least two times. Data were analyzed as described.[36]

The next series deals with HIV-1 replication. As to the kind of experiment: HIV-1 replication in HeLa-CD4-LTR-β-gal reporter cells. The series is classed as cell-based. The procedure:
as §1

The target of another series is T2, HIV-1 RT-RDDP activity (Human immunodeficiency virus type 1 group M subtype B, UniProt P03366).
T2 construct: His-tagged p66/p51 HIV-1 RT group M subtype B; His; made in house; host or cells: Escherichia coli M15
The experiment in a line: Polymerase assay (RNA-dependent DNA polymerase). The series is classed as biochemical. As to the method: as §2
The HIV-1 RT-associated RNA-dependent DNA polymerase activity was measured as described.[65] Briefly, the reaction was carried out in a black 96-well plate in a total volume of 25 μL. Serial dilutions of compounds were added to the reaction mix containing 60 mM Tris HCl buffer pH 8.1, 8 mM MgCl2, 60 mM KCl, 13 mM DTT, 2.5 mM poly(A)-oligo(dT), and […].

The test system of the next series is IN. The settings on record: supplement CSV, earlier compounds 1 and 2; ref 29−33; read-out: IN ST IC50; cited from earlier work.
Setting [3] is: CC50 (cytotoxic concentration 50%), 24 h.
Setting [4] is: anti-RH activity (IC50 ± SD), HIV-1 RT-associated RNase H activity, dose-response curves, no preincubation.
The mark [5] stands for this setting: Human immunodeficiency virus 1, HeLa-CD4-LTR-β-gal cells, 24 h post infection, read-out: antiviral activity EC50.
The mark [6] stands for this setting: Human immunodeficiency virus 1, 24 h, read-out: antiviral activity EC50.

For the molecule `O=C(O)c1cn(Cc2ccc(F)cc2)c2ccc(OCc3ccc4c(c3)OCO4)cc2c1=O` [4q, 6-(Benzo[d][1,3]dioxol-5-ylmethoxy)-1-(4-fluorobenzyl)-4-oxo-1,4-dihydroquinoline-3-carboxylic Acid], the CC50 (commonly the concentration that lowers cell viability or growth by half) at 24 h in series [1] (setting [3]) was > 200 µM; in series [1] (supplement CSV, read-out: CC50), > 50 µM. In addition, the IC50 (as a rule, the concentration that inhibits the measured activity by half) against HIV-1 IN is > 100 µM; in series [2] (setting [4]), 13.5 µM; on HIV-1 RT-RDDP activity it was 5.1 ± 1.8 µM. Further, the “SI (selectivity index = CC50/EC50)” value in the series on HIV-1 replication was >17.7. In addition, the EC50 – broadly, the concentration giving half of the maximal effect – in the series on HIV-1 replication (setting [5]) came out at 11.3 ± 3.5 µM.
`O=C(O)c1cn(Cc2ccc(F)cc2)c2ccc(OCc3ccccc3)cc2c1=O` [4l, 6-(Benzyloxy)-1-(4-fluorobenzyl)-4-oxo-1,4-dihydroquinoline-3-carboxylic Acid]: in series [1] (setting [3]), the CC50 at 24 h is > 100 µM. Moreover, the figures for the IC50 (against HIV-1 IN; in series [2] (setting [4]); against HIV-1 RT-RDDP activity) were 0.41 ± 0.03 µM, 34 ± 0.1 µM and 38.5 ± 7.1 µM, respectively. Moreover, the “SI (selectivity index = CC50/EC50)” value with HIV-1 replication is on record as >8.6. The EC50 with HIV-1 replication (setting [5]) stood at 11.7 ± 2.5 µM; in the series on HIV-1 replication (Human immunodeficiency virus 1, supplement CSV, read-out: EC50), 11.7 ± 2.15 µM.
Molecule `O=C(/C=C/c1ccc2c(c1)c(=O)c(C(=O)O)cn2Cc1ccc(F)cc1)c1ccccc1` [4k, (E)-1-(4-Fluorobenzyl)-4-oxo-6-(3-oxo-3-phenylprop-1-en-1-yl)-1,4-dihydroquinoline-3 carboxylic Acid] showed a CC50 at 24 h in series [1] (setting [3]) of 17 ± 4 µM. Moreover, the figures for the IC50 (at HIV-1 IN; in series [2] (setting [4]); against HIV-1 RT-RDDP activity) were 3.38 ± 0.42 µM, 5.9 ± 0.6 µM and > 100 µM, respectively. Besides, in the series with HIV-1 replication, the “SI (selectivity index = CC50/EC50)” value worked out at 3.1. Also, the EC50 with HIV-1 replication (setting [5]) was 5.4 ± 3.1 µM.
With `CCOC(=O)c1cn(Cc2ccc(F)cc2)c2ccc(OCc3cccc(Cl)c3Cl)cc2c1=O` [5m, Ethyl 6-((2,3-Dichlorobenzyl)oxy)-1-(4-fluorobenzyl)-4-oxo-1,4-dihydroquinoline-3-carboxylate], the cytotoxic concentration (CC50) at 24 h came out at 21.6 ± 2.8 µM in series [1] (setting [3]) and 23.9 ± 4.5 µM in series [1] (supplement CSV, read-out: CC50). Moreover, the IC50 against HIV-1 IN amounted to 0.05 ± 0.01 µM; in series [2] (setting [4]), 24 µM; against HIV-1 RT-RDDP activity, 1.88 ± 0.04 µM. Besides, the “SI (selectivity index = CC50/EC50)” value in the series on HIV-1 replication is given as 1.2. Besides, the EC50 in the series with HIV-1 replication (setting [5]) is 17.8 ± 2.3 µM.
For `CC(=O)c1ccc2c(c1)c(=O)c(C(=O)O)cn2Cc1ccc(F)cc1` [4d, 6-Acetyl-1-(4-fluorobenzyl)-4-oxo-1,4-dihydroquinoline-3-carboxylic Acid], the CC50 at 24 h in series [1] (setting [3]) is > 200 µM; in series [1] (supplement CSV, read-out: CC50), > 50 µM. Besides, the results for the IC50 (at HIV-1 IN; in series [2] (setting [4])) were > 100 µM and 16.3 ± 1.42 µM, respectively. The EC50 in the series with HIV-1 replication (setting [5]) was > 50 µM.
As to `CCOC(=O)c1cn(Cc2ccc(F)cc2)c2ccc(C(C)=O)cc2c1=O` [5d, Ethyl 6-Acetyl-1-(4-fluorobenzyl)-4-oxo-1,4-dihydroquinoline-3-carboxylate], the CC50 at 24 h was > 200 µM in series [1] (setting [3]) and > 50 µM in series [1] (supplement CSV, read-out: CC50). The IC50 against HIV-1 IN was > 100 µM; in series [2] (setting [4]), 11 ± 1 µM. Also, the EC50 in the series with HIV-1 replication (setting [5]) is > 50 µM.
Consider `O=C(O)c1cn(Cc2ccc(F)cc2)c2ccc(OCc3cccc(Cl)c3Cl)cc2c1=O` [4m, 6-((2,3-Dichlorobenzyl)oxy)-1-(4-fluorobenzyl)-4-oxo-1,4-dihydroquinoline-3-carboxylic Acid], for which the CC50 at 24 h was > 200 µM in series [1] (setting [3]) and > 50 µM in series [1] (supplement CSV, read-out: CC50). Also, the IC50 against HIV-1 IN is > 100 µM; in series [2] (setting [4]), 8.19 ± 0.05 µM; at HIV-1 RT-RDDP activity it was 5.6 ± 0.6 µM. In the series with HIV-1 replication, the “SI (selectivity index = CC50/EC50)” value is >15. In addition, the EC50 in the series on HIV-1 replication (setting [5]) was found to be 13.3 ± 4.5 µM.
The molecule `CCOC(=O)/C=C/C(=O)/C=C/c1cccn1Cc1ccccc1Cl` [compound 11, reference compound] had a CC50 at 24 h in series [1] (setting [3]) of 68 ± 10 µM. Further, the IC50 against HIV-1 IN was > 100 µM; in series [2] (setting [4]), 7.5 ± 1.32 µM. Moreover, in the series with HIV-1 replication (setting [6]), the EC50 is 2.9 ± 0.5 µM.
Turning to `O=C(O)c1cn(Cc2ccc(F)cc2)c2ccc(OCc3ccc(Cl)c(Cl)c3)cc2c1=O` [4n, 6-((3,4-Dichlorobenzyl)oxy)-1-(4-fluorobenzyl)-4-oxo-1,4-dihydroquinoline-3-carboxylic Acid], the CC50 at 24 h in series [1] (setting [3]) is > 200 µM; in series [1] (supplement CSV, read-out: CC50), > 50 µM. For the same molecule, the IC50 against HIV-1 IN is 3.25 ± 0.85 µM; in series [2] (RH IC50 (uM), supplement CSV), 29.5 ± 0.55 µM; in series [2] (setting [4]), 29.5 ± 0.5 µM; on HIV-1 RT-RDDP activity it was 2 ± 0.8 µM. Further, the “SI (selectivity index = CC50/EC50)” value in the series on HIV-1 replication is reported as >12.4. In the series with HIV-1 replication (setting [5]), the EC50 was found to be 16.1 ± 5.5 µM.
For `CCOC(=O)c1cn(Cc2ccc(F)cc2)c2ccc(OCc3cccc4ccccc34)cc2c1=O` [5o, Ethyl 1-(4-Fluorobenzyl)-6-(naphthalen-1-ylmethoxy)-4-oxo-1,4-dihydroquinoline-3-carboxylate], the CC50 at 24 h in series [1] (setting [3]) is > 100 µM. Also, the IC50 in series [2] (setting [4]) is 1.49 ± 0.33 µM. The EC50 with HIV-1 replication (setting [6]) was > 100 µM.
Consider `CCOC(=O)/C(O)=C/C(=O)/C=C/c1cccn1Cc1ccc(F)cc1` [compound 1], for which, in the series with IN, the IC50 was 90 µM.
As for `CCOC(=O)c1cn(Cc2ccc(F)cc2)c2ccc(OCc3ccc(Cl)c(Cl)c3)cc2c1=O` [5n, Ethyl 6-((3,4-Dichlorobenzyl)oxy)-1-(4-fluorobenzyl)-4-oxo-1,4-dihydroquinoline-3-carboxylate], the half-maximal cytotoxic concentration (CC50) at 24 h in series [1] (setting [3]) came to 20.6 ± 4.4 µM. For the same molecule, the IC50 at HIV-1 IN amounted to 9.45 ± 0.55 µM; in series [2] (RH IC50 (uM), supplement CSV), 37.2 ± 7.58 µM; in series [2] (setting [4]) it was 37.2 ± 7.6 µM; against HIV-1 RT-RDDP activity it was 24.1 ± 8.6 µM. Also, the “SI (selectivity index = CC50/EC50)” value with HIV-1 replication amounted to 1.4. For the same molecule, in the series on HIV-1 replication (setting [5]), the EC50 turned out to be 14.6 ± 3.1 µM.
With `O=C(O)c1cn(Cc2ccc(F)cc2)c2ccc(OCc3ccc(-c4ccccc4)cc3)cc2c1=O` [4s, 6-([1,1′-Biphenyl]-4-ylmethoxy)-1-(4-fluorobenzyl)-4-oxo-1,4-dihydroquinoline-3-carboxylic Acid], the CC50 at 24 h in series [1] (setting [3]) is > 100 µM; in series [1] (supplement CSV, read-out: CC50), > 16 µM. Further, the IC50 on HIV-1 IN is > 250 µM; in series [2] (setting [4]), 7.47 ± 1.55 µM; on HIV-1 RT-RDDP activity, 11.6 ± 5.5 µM. For the same molecule, the “SI (selectivity index = CC50/EC50)” value in the series with HIV-1 replication is given as >40. Moreover, the EC50 in the series on HIV-1 replication (setting [5]) worked out at 2.5 ± 1.03 µM.
